# Measurements: patent publication US9505769B2 (ASCENEURON SA, priority 2013, dated 2016)
# Structures can show the parent of a compound that is named as a salt. Where two headings read alike, the source gives them in different places.
# Target: T1, human muscarinic acetylcholine M1 receptor (Homo sapiens, UniProt P11229)
# T1 construct: expressed in transfected cells; host or cells: CHO-K1
# T1 sequence (P11229 1-460): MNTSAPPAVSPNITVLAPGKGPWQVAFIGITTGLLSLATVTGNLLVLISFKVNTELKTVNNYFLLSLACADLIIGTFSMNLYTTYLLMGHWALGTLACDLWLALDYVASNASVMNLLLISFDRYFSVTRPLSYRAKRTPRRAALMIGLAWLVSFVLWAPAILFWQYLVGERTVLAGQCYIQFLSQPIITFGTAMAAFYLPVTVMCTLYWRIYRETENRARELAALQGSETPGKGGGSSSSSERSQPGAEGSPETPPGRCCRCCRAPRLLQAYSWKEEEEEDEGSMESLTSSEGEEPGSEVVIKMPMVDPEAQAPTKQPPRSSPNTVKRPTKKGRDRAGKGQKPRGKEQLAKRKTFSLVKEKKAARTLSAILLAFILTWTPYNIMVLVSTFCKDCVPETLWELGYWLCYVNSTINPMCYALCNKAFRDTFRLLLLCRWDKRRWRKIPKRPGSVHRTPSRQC
# Experiment: M1 PAM Assay (IP-One HTRF, IP1 accumulation in M1-CHO cells)
# Type: cell-based
# Experimental: Then diluted compounds (0.6% DMSO final concentration) are added together with EC20 of acetylcholine and incubated with the cells for 30 min at 37° C., 5% CO2.
# CHO-K1 cells stably transfected with human muscarinic acetylcholine M1 receptor are cultured in Ham's F12 medium containing 10% heat inactivated fetal calf serum, 2 mM L-glutamine and Penicillin-Streptomycin grown in a humidified atmosphere at 5% CO2/95% air at 37° C.
# [1] = CHO-K1 cells stably transfected with human M1 receptor, compounds added with EC20 of acetylcholine (25 nM), 30 min, intracellular IP1 by IP-One HTRF, read-out: M1 PAM EC50
smiles,measurement,setting,value
"Cc1nc2c3c(nn2c(C)c1Cl)CN(C(=O)c1ccc(F)cc1OCCc1cncc(F)c1)C3 [Example 43, (3-chloro-2,4-dimethyl-7H-pyrrolo[3′,4′:3,4]pyrazolo[1,5-a]pyrimidin-8(9H)-yl)(4-fluoro-2-(2-(5-fluoropyridin-3-yl)ethoxy)phenyl)methanone]",EC50,[1],< 0.2 µM
"Cc1nc2c3c(nn2c(C)c1Cl)CN(C(=O)c1ccc(F)cc1OC1CN(CCF)C1)C3 [Example 46, (3-chloro-2,4-dimethyl-7H-pyrrolo[3′,4′:3,4]pyrazolo[1,5-a]pyrimidin-8(9H)-yl)(4-fluoro-2-((1-(2-fluoroethyl)azetidin-3-yl)oxy)phenyl)methanone]",EC50,[1],1 to 3 µM
"Cc1nc2c3c(nn2c(C)c1Cl)CN(C(=O)c1ccc(F)cc1OC1CCC(F)(F)CC1)C3 [Example 47, (3-chloro-2,4-dimethyl-7H-pyrrolo[3′,4′:3,4]pyrazolo[1,5-a]pyrimidin-8(9H)-yl)(2-((4,4-difluorocyclohexyl)oxy)-4-fluorophenyl)methanone]",EC50,[1],1 to 3 µM
"COCCN1[C@@H]2CC[C@H]1C[C@@H](Oc1cc(F)ccc1C(=O)N1Cc3nn4cc(Cl)cnc4c3C1)C2 [Example 52, (3-chloro-7H-pyrrolo[3′,4′:3,4]pyrazolo[1,5-a]pyrimidin-8(9H)-yl)(4-fluoro-2-{[(3-endo)-8-(2-methoxyethyl)-8-azabicyclo[3.2.1]oct-3-yl]oxy}phenyl)methanone]",EC50,,0.2 to 1 µM
"CN1[C@@H]2CC[C@H]1C[C@@H](Oc1cc(F)ccc1C(=O)N1Cc3nn4cc(Cl)cnc4c3C1)C2 [Example 53, (3-chloro-7H-pyrrolo[3′,4′:3,4]pyrazolo[1,5-a]pyrimidin-8(9H)-yl)(4-fluoro-2-{[(3-endo)-8-methyl-8-azabicyclo[3.2.1]oct-3-yl]oxy}phenyl)methanone]",EC50,,< 0.2 µM
"Cc1nc2c3c(nn2c(C)c1Cl)CN(C(=O)c1ccc(F)cc1OC[C@H]1C[C@H](F)CN1)C3 [Example 55, (6-Chloro-5,7-dimethyl-1H,3H-2,4,7a,8-tetraaza-cyclopenta[a]inden-2-yl)-[4-fluoro-2-((2R,4S)-4-fluoro-pyrrolidin-2-ylmethoxy)-phenyl]-methanone]",EC50,[1],0.2 to 1 µM
"Cc1nc2c3c(nn2c(C)c1Cl)CN(C(=O)c1ccc(F)cc1OC[C@H]1CC(F)(F)CN1)C3 [Example 56, (6-Chloro-5,7-dimethyl-1H,3H-2,4,7a,8-tetraaza-cyclopenta[a]inden-2-yl)-[2-((R)-4,4-difluoro-pyrrolidin-2-ylmethoxy)-4-fluoro-phenyl]-methanone]",EC50,[1],< 0.2 µM
"Cc1nc2c3c(nn2c(C)c1Cl)CN(C(=O)c1ccc(F)cc1O[C@H]1C[C@H]2CCC[C@@H](C1)N2C)C3 [Example 58, (3-chloro-2,4-dimethyl-7H-pyrrolo[3′,4′:3,4]pyrazolo[1,5-a]pyrimidin-8(9H)-yl)(4-fluoro-2-{[(3-endo)-9-methyl-9-azabicyclo[3.2.1]nonan-3-yl]oxy}phenyl)methanone]",EC50,,0.2 to 1 µM
"O=C(c1ccc(F)cc1O[C@H]1C[C@H]2CC[C@@H](C1)N2CC1CC1)N1Cc2nn3cc(Cl)cnc3c2C1 [Example 59, (3-chloro-7H-pyrrolo[3′,4′:3,4]pyrazolo[1,5-a]pyrimidin-8(9H)-yl)(2-{[(3-endo)-8-(cyclopropylmethyl)-8-azabicyclo[3.2.1]oct-3-yl]oxy}-4-fluorophenyl)methanone]",EC50,,< 0.2 µM
"Cc1nc2c3c(nn2c(C)c1Cl)CN(C(=O)c1ccc(F)cc1OC[C@H]1C[C@@H](F)CN1)C3 [Example 60, (6-Chloro-5,7-dimethyl-1H,3H-2,4,7a,8-tetraaza-cyclopenta[a]inden-2-yl)-[4-fluoro-2-((2R,4R)-4-fluoro-pyrrolidin-2-ylmethoxy)-phenyl]-methanone]",EC50,[1],< 0.2 µM
"Cc1nc2c3c(nn2c(C)c1Cl)CN(C(=O)c1ccc(F)cc1OC1CC(N)C1)C3 (stereo not shown) [Example 61, [2-(3-Amino-cyclobutoxy)-4-fluoro-phenyl]-(6-chloro-5,7-dimethyl-1H,3H-2,4,7a,8-tetraaza-cyclopenta[a]inden-2-yl)-methanone, hydrochloride]",EC50,[1],< 0.2 µM
"Cc1nc2c3c(nn2c(C)c1Cl)CN(C(=O)c1ccc(F)cc1OCCN1CC[C@@H](F)C1)C3 [Example 62, (6-Chloro-5,7-dimethyl-1H,3H-2,4,7a,8-tetraaza-cyclopenta[a]inden-2-yl)-{4-fluoro-2-[2-((R)-3-fluoro-pyrrolidin-1-yl)-ethoxy]-phenyl}-methanone]",EC50,[1],0.2 to 1 µM
"CCN1[C@@H]2CC[C@H]1C[C@@H](Oc1cc(F)ccc1C(=O)N1Cc3nn4cc(Cl)cnc4c3C1)C2 [Example 63, (3-chloro-7H-pyrrolo[3′,4′:3,4]pyrazolo[1,5-a]pyrimidin-8(9H)-yl)(2-{[(3-endo)-8-ethyl-8-azabicyclo[3.2.1]oct-3-yl]oxy}-4-fluorophenyl)methanone]",EC50,,< 0.2 µM
"CCCN1[C@@H]2CC[C@H]1C[C@@H](Oc1cc(F)ccc1C(=O)N1Cc3nn4cc(Cl)cnc4c3C1)C2 [Example 64, (3-chloro-7H-pyrrolo[3′,4′:3,4]pyrazolo[1,5-a]pyrimidin-8(9H)-yl)(4-fluoro-2-{[(3-endo)-8-propyl-8-azabicyclo[3.2.1]oct-3-yl]oxy}phenyl)methanone]",EC50,,< 0.2 µM
"O=C(c1ccc(F)cc1O[C@H]1C[C@H]2CC[C@@H](C1)N2CC(F)F)N1Cc2nn3cc(Cl)cnc3c2C1 [Example 65, (3-chloro-7H-pyrrolo[3′,4′:3,4]pyrazolo[1,5-a]pyrimidin-8(9H)-yl)(2-{[(3-endo)-8-(2,2-difluoroethyl)-8-azabicyclo[3.2.1]oct-3-yl]oxy}-4-fluorophenyl)methanone]",EC50,[1],0.2 to 1 µM
"N#CCN1[C@@H]2CC[C@H]1C[C@@H](Oc1cc(F)ccc1C(=O)N1Cc3nn4cc(Cl)cnc4c3C1)C2 [Example 66, [(3endo)-3-{2[(3-chloro-7H-pyrrolo[3′,4′:3,4]pyrazolo[1,5-a]pyrimidin-8(9H)-yl)carbonyl]-5-fluorophenoxy}-8-azabicyclo[3.2.1]oct-8-yl]acetonitrile]",EC50,,0.2 to 1 µM
"Cc1cncc(CCOc2cc(F)ccc2C(=O)N2Cc3nn4c(C)c(Cl)c(C)nc4c3C2)c1 [Example 67, (3-chloro-2,4-dimethyl-7H-pyrrolo[3′,4′:3,4]pyrazolo[1,5-a]pyrimidin-8(9H)-yl)(4-fluoro-2-(2-(5-methylpyridin-3-yl)ethoxy)phenyl)methanone]",EC50,[1],0.2 to 1 µM
"Cc1nc2c3c(nn2c(C)c1Cl)CN(C(=O)c1ccc(F)cc1OCC1(N)CC1)C3 [Example 68, (2-((1-aminocyclopropyl)methoxy)-4-fluorophenyl)(3-chloro-2,4-dimethyl-7H-pyrrolo[3′,4′:3,4]pyrazolo[1,5-a]pyrimidin-8(9H)-yl)methanone]",EC50,[1],1 to 3 µM
"Cc1nc2c3c(nn2c(C)c1Cl)CN(C(=O)c1ccc(F)cc1OC1CC(N(C)C)C1)C3 (stereo not shown) [Example 71, (6-Chloro-5,7-dimethyl-1H,3H-2,4,7a,8-tetraaza-cyclopenta[a]inden-2-yl)-[2-(3-dimethylamino-cyclobutoxy)-4-fluoro-phenyl]-methanone]",EC50,[1],0.2 to 1 µM
COc1cncc(CCOc2cc(F)ccc2C(=O)N2Cc3nn4c(C)c(Cl)c(C)nc4c3C2)c1 [Example 72],EC50,[1],1 to 3 µM
"CC(O)CN1[C@@H]2CC[C@H]1C[C@@H](Oc1cc(F)ccc1C(=O)N1Cc3nn4cc(Cl)cnc4c3C1)C2 (stereo partly drawn) [Example 73, (3-chloro-7H-pyrrolo[3′,4′:3,4]pyrazolo[1,5-a]pyrimidin-8(9H)-yl)(4-fluoro-2-{[(3-endo)-8-(2-hydroxypropyl)-8-azabicyclo[3.2.1]oct-3-yl]oxy}phenyl)methanone]",EC50,,0.2 to 1 µM
"CN1[C@@H]2CC[C@H]1C[C@@H](Oc1cc(F)ccc1C(=O)N1Cc3nn4cc(C5CC5)cnc4c3C1)C2 [Example 74, (3-cyclopropyl-7H-pyrrolo[3′,4′:3,4]pyrazolo[1,5-a]pyrimidin-8(9H)-yl)(4-fluoro-2-{[(3-endo)-8-methyl-8-azabicyclo[3.2.1]oct-3-yl]oxy}phenyl)methanone]",EC50,,< 0.2 µM
"Cc1nc2c3c(nn2c(C)c1Cl)CN(C(=O)c1ccc(F)cc1OC1CCN(CC(O)C(F)(F)F)CC1)C3 (stereo not shown) [Example 75, (6-Chloro-5,7-dimethyl-1H,3H-2,4,7a,8-tetraaza-cyclopenta[a]inden-2-yl)-{4-fluoro-2-[1-(3,3,3-trifluoro-2-hydroxy-propyl)-piperidin-4-yloxy]-phenyl}-methanone]",EC50,[1],0.2 to 1 µM
"CCN1CCC(Oc2cc(F)ccc2C(=O)N2Cc3nn4c(C)c(Cl)c(C)nc4c3C2)CC1 [Example 76, (6-Chloro-5,7-dimethyl-1H,3H-2,4,7a,8-tetraaza-cyclopenta[a]inden-2-yl)-[2-(1-ethyl-piperidin-4-yloxy)-4-fluoro-phenyl]-methanone]",EC50,[1],< 0.2 µM
"CCCN1CCC(Oc2cc(F)ccc2C(=O)N2Cc3nn4c(C)c(Cl)c(C)nc4c3C2)CC1 [Example 77, (6-Chloro-5,7-dimethyl-1H,3H-2,4,7a,8-tetraaza-cyclopenta[a]inden-2-yl)-[4-fluoro-2-(1-propyl-piperidin-4-yloxy)-phenyl]-methanone]",EC50,[1],< 0.2 µM
